Like-named read-outs stand apart in the source and are kept apart here.
What was measured:
cSRC = target: T1, cSRC (Homo sapiens, UniProt P12931); assay: Upstate kinase Profiler counter-screening; type: biochemical
T1 construct: purchased Upstate

[1] = test system: lymphocyte proliferation (BrdU incorporation)
Description: The samples were collected in tubes containing heparin and shipped to a central laboratory for evaluation. Whole blood from each sample was diluted 1:5 in complete RPMI media and 200 microliter aliquots were added to wells of a 96-well plate. Samples from each time point were either stimulated with PHA (0.01 mg/ml final concentration), or not stimulated. […] Samples were stained with FITC conjugated anti-CD45 antibody. RBC's were lysed and the remaining cells were fixed, permeabilized and treated with DNase. The samples were then incubated with an anti-BrdU antibody. Washed cells were re-suspended and the CD45 and BrdU-positive and −negative populations were detected by FACS. FIGS. 10, 12A, and 12B show the percent of BrdU incorporation for samples taken for various doses.

tumor [2] = settings: various dosages, 2 hour or 8 hour IV infusion, 21-day dosing cycle
H82 (SCLC) = assay: xenograft tumor model
PKCα = target: T2, PKCα (Homo sapiens, UniProt P17252); assay: Upstate kinase Profiler counter-screening; type: biochemical
T2 construct: purchased Upstate

xenograft models = settings: plasma trough concentrations of less than 25 nM for less than two hours
Rsk2 = target: T3, Rsk2 (Homo sapiens, UniProt P51812); assay: Upstate kinase Profiler counter-screening; type: biochemical
T3 construct: purchased Upstate

[3] = test system: various human tumor cell lines; settings: for Caspase Activation (number of sensitive cell lines out of total tested/single exposure): two hour exposure to less than 0.1 micromolar
Description: (§1) The level of activation of apoptosis was also assessed by determining the levels of activated caspase in each cell line. […] The cells were evaluated fluorometrically for levels of activated caspase six hours post washout. Samples of each cell line were also subjected to SDS-PAGE and subsequently immunoblotted for p85 PARP caspase cleavage product.

tumor [4] = settings: for Status: 4-week schedule
Excerpt: Each 28-day dosing cycle comprising once weekly administration for three weeks with a week off.

YES = target: T4, YES (Homo sapiens, UniProt P07947); assay: Upstate kinase Profiler counter-screening; type: biochemical; settings: at 1 μM
T4 construct: purchased Upstate

Fes = target: T5, Fes (Homo sapiens, UniProt P07332); assay: Upstate kinase Profiler counter-screening; type: biochemical
T5 construct: purchased Upstate

phospho-Rb Ser 807/811 = settings: single dose IP 40 mg/kg; samples post dose vs T0
Excerpt: Skin samples were harvested at various intervals following dosing and compared with biopsies harvested prior to dosing (T0). Biopsied samples were fixed overnight in 10% formalin.

CaMKII = type: biochemical
[5] = test system: various human tumor cell lines; settings: read-out: Mean In-Cell IC50, 24 hours exposure
Description: as §1

T3 sequence (P51812 whole entry, species assumed): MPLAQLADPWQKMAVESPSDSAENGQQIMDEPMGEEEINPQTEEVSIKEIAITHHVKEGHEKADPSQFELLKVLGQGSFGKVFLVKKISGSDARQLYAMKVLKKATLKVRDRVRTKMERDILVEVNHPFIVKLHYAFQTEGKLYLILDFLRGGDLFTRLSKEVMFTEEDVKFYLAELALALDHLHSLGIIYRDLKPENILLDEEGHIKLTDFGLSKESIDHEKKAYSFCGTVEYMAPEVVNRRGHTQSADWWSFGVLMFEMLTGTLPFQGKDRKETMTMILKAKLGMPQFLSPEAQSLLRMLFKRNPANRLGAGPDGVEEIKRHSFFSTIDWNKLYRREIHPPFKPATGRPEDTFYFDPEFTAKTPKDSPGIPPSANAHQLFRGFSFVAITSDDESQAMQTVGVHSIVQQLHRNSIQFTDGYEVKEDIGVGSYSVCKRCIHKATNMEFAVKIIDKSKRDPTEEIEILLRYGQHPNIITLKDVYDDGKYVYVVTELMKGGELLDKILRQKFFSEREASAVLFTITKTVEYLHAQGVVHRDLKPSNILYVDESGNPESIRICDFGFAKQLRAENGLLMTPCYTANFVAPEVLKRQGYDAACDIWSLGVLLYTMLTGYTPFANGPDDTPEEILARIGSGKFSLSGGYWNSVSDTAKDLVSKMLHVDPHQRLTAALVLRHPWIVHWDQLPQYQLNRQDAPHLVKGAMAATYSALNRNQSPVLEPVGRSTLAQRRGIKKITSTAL
T5 sequence (P07332 whole entry, species assumed): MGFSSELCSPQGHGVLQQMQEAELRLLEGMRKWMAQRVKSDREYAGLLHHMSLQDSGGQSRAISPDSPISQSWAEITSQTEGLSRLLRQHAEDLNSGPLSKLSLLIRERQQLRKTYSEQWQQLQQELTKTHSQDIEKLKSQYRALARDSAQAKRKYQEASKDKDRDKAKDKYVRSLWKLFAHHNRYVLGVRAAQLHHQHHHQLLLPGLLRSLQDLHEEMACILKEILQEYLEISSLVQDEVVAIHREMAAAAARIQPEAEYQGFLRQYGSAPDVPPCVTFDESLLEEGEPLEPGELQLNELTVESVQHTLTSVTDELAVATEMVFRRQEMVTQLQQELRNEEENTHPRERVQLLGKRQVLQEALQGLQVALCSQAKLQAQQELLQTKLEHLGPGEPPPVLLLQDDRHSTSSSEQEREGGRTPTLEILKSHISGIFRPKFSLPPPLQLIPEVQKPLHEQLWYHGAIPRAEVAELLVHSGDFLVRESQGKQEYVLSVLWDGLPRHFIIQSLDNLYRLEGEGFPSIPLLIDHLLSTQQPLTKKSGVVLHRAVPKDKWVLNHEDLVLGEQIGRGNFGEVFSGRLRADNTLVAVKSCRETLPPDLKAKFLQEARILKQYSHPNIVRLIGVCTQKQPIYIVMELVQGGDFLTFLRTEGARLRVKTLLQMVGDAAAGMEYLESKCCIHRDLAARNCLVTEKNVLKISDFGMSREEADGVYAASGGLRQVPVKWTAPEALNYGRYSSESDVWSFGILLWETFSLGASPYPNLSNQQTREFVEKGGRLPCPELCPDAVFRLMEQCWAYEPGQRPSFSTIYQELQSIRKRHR
T1 sequence (P12931 whole entry, species assumed): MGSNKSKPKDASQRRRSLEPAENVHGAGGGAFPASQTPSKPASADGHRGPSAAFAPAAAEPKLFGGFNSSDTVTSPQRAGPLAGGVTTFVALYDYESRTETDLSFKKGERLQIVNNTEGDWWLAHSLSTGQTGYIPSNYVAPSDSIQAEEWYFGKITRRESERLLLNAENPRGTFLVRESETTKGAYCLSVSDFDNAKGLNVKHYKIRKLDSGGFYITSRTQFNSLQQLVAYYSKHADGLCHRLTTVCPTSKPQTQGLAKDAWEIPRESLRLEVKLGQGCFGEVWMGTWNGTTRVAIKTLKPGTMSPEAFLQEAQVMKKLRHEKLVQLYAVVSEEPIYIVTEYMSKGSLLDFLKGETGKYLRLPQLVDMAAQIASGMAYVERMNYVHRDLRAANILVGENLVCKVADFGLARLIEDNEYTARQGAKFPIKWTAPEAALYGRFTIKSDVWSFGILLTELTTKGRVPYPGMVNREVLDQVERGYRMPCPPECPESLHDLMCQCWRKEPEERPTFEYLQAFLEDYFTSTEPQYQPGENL
T4 sequence (P07947 whole entry, species assumed): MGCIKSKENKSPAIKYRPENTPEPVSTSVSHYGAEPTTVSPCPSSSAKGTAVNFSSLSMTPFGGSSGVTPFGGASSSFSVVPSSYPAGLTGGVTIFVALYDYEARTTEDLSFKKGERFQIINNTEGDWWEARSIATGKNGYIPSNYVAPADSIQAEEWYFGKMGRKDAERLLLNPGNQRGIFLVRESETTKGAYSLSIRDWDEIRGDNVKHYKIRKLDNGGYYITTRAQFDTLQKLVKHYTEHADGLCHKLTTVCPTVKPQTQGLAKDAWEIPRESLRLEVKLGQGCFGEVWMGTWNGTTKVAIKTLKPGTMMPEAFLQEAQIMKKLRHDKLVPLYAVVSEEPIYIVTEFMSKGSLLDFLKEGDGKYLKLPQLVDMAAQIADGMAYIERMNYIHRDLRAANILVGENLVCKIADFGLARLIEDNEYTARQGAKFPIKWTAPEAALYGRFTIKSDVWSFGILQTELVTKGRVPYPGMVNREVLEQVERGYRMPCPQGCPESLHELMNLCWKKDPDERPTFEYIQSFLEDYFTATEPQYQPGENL

CCc1cnn2c(NCc3ccc[n+]([O-])c3)cc(N3CCCC[C@H]3CCO)nc12 [Formula II]
% remaining activity (cSRC; at 1 μM): 117%
% remaining activity (cSRC; at 10 μM): 111%
% BrdU incorporated at 8 hrs post-infusion ([1]; Patient A, 1.85 mg/M2, Pre-Dose 28): 65%
% BrdU incorporated at 8 hrs post-infusion ([1]; Patient B, 3.7 mg/M2, Pre-Dose 10): 13%
% BrdU incorporated at 8 hrs post-infusion ([1]; Patient C, 7.4 mg/M2, Pre-Dose 51): 11%
% BrdU incorporated at 8 hrs post-infusion ([1]; Patient F, 50 mg/M2, Pre-Dose 33): 1%
% BrdU incorporated at 8 hrs post-infusion ([1]; Patient G, 58 mg/M2, Pre-Dose 23): 0.7%
% BrdU incorporated at 8 hrs post-infusion ([1]; Patient H, 41.4 mg/M2, Pre-Dose 41): 45%
responses by RECIST criteria in the population (tumor [2]): no complete or partial responses
% inhibition observed at dosage of 5 mg/kg Formula II (H82 (SCLC); first Formula II column): 56%
% inhibition observed at dosage of 5 mg/kg Formula II (H82 (SCLC); second Formula II column): 65%
% remaining activity (PKCα; at 1 μM): 96%
% remaining activity (PKCα; at 10 μM): 94%
effect on xenograft tumors (xenograft models): tumor growth inhibition or regression
% remaining activity (Rsk2; at 1 μM): 104%
% remaining activity (Rsk2; at 10 μM): 76%
Caspase Activation (number of sensitive cell lines out of total tested/single exposure) ([3]; Bladder): 1 of 2
Caspase Activation (number of sensitive cell lines out of total tested/single exposure) ([3]; Breast): 6 of 7
Caspase Activation (number of sensitive cell lines out of total tested/single exposure) ([3]; Colon): 5 of 9
Caspase Activation (number of sensitive cell lines out of total tested/single exposure) ([3]; Leukemia): 5 of 6
Caspase Activation (number of sensitive cell lines out of total tested/single exposure) ([3]; Liver): 2 of 2
Caspase Activation (number of sensitive cell lines out of total tested/single exposure) ([3]; Lymphoma (NHL)): 8 of 8
Caspase Activation (number of sensitive cell lines out of total tested/single exposure) ([3]; Mantle Cell lymphoma): 3 of 4
Caspase Activation (number of sensitive cell lines out of total tested/single exposure) ([3]; Melanoma): 9 of 9
Caspase Activation (number of sensitive cell lines out of total tested/single exposure) ([3]; NSCLC): 8 of 9
Caspase Activation (number of sensitive cell lines out of total tested/single exposure) ([3]; Ovarian): 5 of 7
Caspase Activation (number of sensitive cell lines out of total tested/single exposure) ([3]; Pancreatic): 11 of 15
Caspase Activation (number of sensitive cell lines out of total tested/single exposure) ([3]; Prostate): 4 of 5
Caspase Activation (number of sensitive cell lines out of total tested/single exposure) ([3]; SCLC): 2 of 6
share of cell lines tested with caspase activation and apoptosis detected ([3]; single exposure): over 85%
Status (tumor [4]; adenoidcystic carcinoma patient, 7.11 mg/m^2, 5 cycles): disease progression
Status (tumor [4]; melanoma patient, 3.63 mg/m^2, 9 cycles): disease progression
Status (tumor [4]; prostate patient, 3.63 mg/m^2, 4 cycles): disease progression
Status (tumor [4]; pseudomyxoma patient, 2.59 mg/m^2, 9 cycles): off study with stable disease
tumor markers (FIG. 11, incl. CA125) (tumor [4]; pseudomyxoma peritonei patient, after 6 cycles of 28 day treatment at 2.59 mg/m^2): falling tumor markers
responses by RECIST criteria in the population (tumor [4]; various dosages, 2 hour IV infusion, 28-day dosing cycle): No complete or partial responses
% remaining activity (YES): 92%
% remaining activity (Fes; at 1 μM): 87%
% remaining activity (Fes; at 10 μM): 91%
phospho-Rb in proliferating epithelial cells of basal epithelium and hair follicles (phospho-Rb Ser 807/811): rapid and sustained suppression of phospho-Rb
% remaining activity (CaMKII; at 1 μM): 102%
% remaining activity (CaMKII; at 10 μM): 91%
IC50 ([5]; Bladder): 10 nM
IC50 ([5]; Breast): 8 nM
IC50 ([5]; Colon): 17 nM
IC50 ([5]; Leukemia): 6 nM
IC50 ([5]; Liver): 8 nM
IC50 ([5]; Lymphoma (NHL)): 7 nM
IC50 ([5]; Mantle Cell lymphoma): 7 nM
IC50 ([5]; Melanoma): 9 nM
IC50 ([5]; NSCLC): 14 nM
IC50 ([5]; Ovarian): 14 nM
IC50 ([5]; Pancreatic): 15 nM
IC50 ([5]; Prostate): 12 nM
IC50 ([5]; SCLC): 6 nM

Source: patent US20100286038A1, “FORMULATION CONTAINING CYCLIN-DEPENDENT KINASE INHIBITING COMPOUND AND METHOD OF TREATING TUMORS USING THE SAME” (priority 2007, published 2010)
